# Reference: patent publication US7683048B2, “Polymorphis of a known thiophenecarboxylic acid dodecahydrocyclopenta (a) phenanthrenyl ester” (Novartis AG, priority 2002, dated 2010)
# Columns and labels:
# Format in all cases: physicochemical
# [1] = Stability of crystal forms after 4 weeks at 80° C., analyzed by XRPD; conditions: for Conversion in the solid state on storage: stored for 4 weeks at 80° C.; for Crystal form found by XRPD after storage (stability): 4 weeks at 80° C.
# Description: Samples of the compound of formula I in crystal form A, the compound of formula I in crystal form B, a mixture of both crystal forms and an amorphous form of the compound of formula I (obtained by spray drying) are stored for 4 weeks at 80° C. under different conditions and analyzed by X-ray powder diffraction (XRPD).
# [2] = Heat of solution at 25° C. in acetone
# Description: The heat of solution of samples of crystal forms A and B of the compound of formula I are measured at 25° C. in acetone.
# [3] = Interconversion of crystal forms in the presence of solvent
structure (smiles),measurement,setting,value
"COC(=O)[C@@]1(OC(=O)c2sccc2C)[C@H](C)CC2C3C[C@H](F)C4=CC(=O)C=C[C@]4(C)[C@@]3(Cl)[C@@H](O)C[C@@]21C (stereo partly drawn) [Amorphous form, 3-methylthiophene-2-carboxylic acid (6S,9R,10S,11S, 13S,16R,17R)-9-chloro-6-fluoro-11-hydroxy-17-methoxycarbonyl-10,13,16-trimethyl-3-oxo-6,7,8,9,10,11,12,13,14,15,16,17-dodecahydro-3H-cyclopenta[a]phenanthren-17-yl ester]",Conversion in the solid state on storage,"[1]; solid state, listed as amorphous form",can also convert into crystal form A
"COC(=O)[C@@]1(OC(=O)c2sccc2C)[C@H](C)CC2C3C[C@H](F)C4=CC(=O)C=C[C@]4(C)[C@@]3(Cl)[C@@H](O)C[C@@]21C (stereo partly drawn) [Crystal form A, 3-methylthiophene-2-carboxylic acid (6S,9R,10S,11S, 13S,16R,17R)-9-chloro-6-fluoro-11-hydroxy-17-methoxycarbonyl-10,13,16-trimethyl-3-oxo-6,7,8,9,10,11,12,13,14,15,16,17-dodecahydro-3H-cyclopenta[a]phenanthren-17-yl ester]",Relative thermodynamic stability (from storage test),"[1]; solid state, versus crystal form B",more thermodynamically stable than crystal form B
same,Heat of solution,[2]; listed as A,29.3 J/g
same,Relative thermodynamic stability (from heat of solution),[2]; versus crystal form B,more thermodynamically stable than crystal form B
same,Conversion of crystal form in the presence of ethanol,[3]; in the presence of ethanol,converts to crystal form B
"COC(=O)[C@@]1(OC(=O)c2sccc2C)[C@H](C)CC2C3C[C@H](F)C4=CC(=O)C=C[C@]4(C)[C@@]3(Cl)[C@@H](O)C[C@@]21C (stereo partly drawn) [Crystal form B, 3-methylthiophene-2-carboxylic acid (6S,9R,10S,11S, 13S,16R,17R)-9-chloro-6-fluoro-11-hydroxy-17-methoxycarbonyl-10,13,16-trimethyl-3-oxo-6,7,8,9,10,11,12,13,14,15,16,17-dodecahydro-3H-cyclopenta[a]phenanthren-17-yl ester]",Crystal form found by XRPD after storage (stability),"[1]; 75% r.h. (relative humidity), open",A + B
same,Crystal form found by XRPD after storage (stability),[1]; N2 + 2% water,A + B
same,Crystal form found by XRPD after storage (stability),[1]; O2,A + B
same,Conversion in the solid state on storage,"[1]; solid state, listed as crystal form B",can convert at least partially in the solid state into crystal form A
same,Heat of solution,[2]; listed as B,17.9 J/g
same,Conversion of crystal form in the presence of isopropanol,[3]; in the presence of isopropanol,converts to crystal form A
"COC(=O)[C@@]1(OC(=O)c2sccc2C)[C@H](C)CC2C3C[C@H](F)C4=CC(=O)C=C[C@]4(C)[C@@]3(Cl)[C@@H](O)C[C@@]21C (stereo partly drawn) [Crystal forms A + B, 3-methylthiophene-2-carboxylic acid (6S,9R,10S,11S, 13S,16R,17R)-9-chloro-6-fluoro-11-hydroxy-17-methoxycarbonyl-10,13,16-trimethyl-3-oxo-6,7,8,9,10,11,12,13,14,15,16,17-dodecahydro-3H-cyclopenta[a]phenanthren-17-yl ester]",Crystal form found by XRPD after storage (stability),[1]; N2,A + B
same,Crystal form found by XRPD after storage (stability),[1]; sealed,A + B
